The source of these data is patent publication US20140221301A1, “COMBINATION TREATMENT FOR CANCER” (priority 2011, published 2014).

In one experiment the test system is TEX cells. Description: ROS generation (DCF-DA, DHE) in TEX cells. Format: cell-based, human. Conditions: time-points up to 24 hours. The protocol: FIG. 4. […] (A) Cells from TEX, OCI-AML2 and two primary AML patients were treated with increasing concentrations (2.5 μM and 5 μM) of tigecycline for 36 and 48 hours of tigecycline. Total proteins were extracted and analyzed by western blotting for Cox-1, Cox-2, Cox-4, grp78, XIAP, actin and tubulin. (B) TEX and AML patient cells were treated with increasing concentrations (2.5 μM and 5 μM) of tigecycline. Cox-1, Cox-2, and Cox-4 mRNA expression relative 18S was determined by quantitative RT-PCR. Data is shown as mean±SD. (C) TEX cells were treated with increasing concentrations of tigecycline and chloramphenicol (CAP) for 72 hours. Complex I, II and IV enzyme activity relative to citrate synthase activity was determined as described in materials and methods. (D) Cells from TEX, primary AML patients, and normal donors were treated with increasing concentrations of tigecycline. Mitochondrial membrane potential (ΔΨ) was determined by staining cells with JC-1 dye, and flow cytometry analysis (Red/Green ratio). Reactive oxygen species generation (ROS) was determined by staining with h2-DCFDA and Dihydroethidium (DHE).
A byproduct of the mitochondrial enzyme activities of the electron transport chain is the generation of reactive oxygen species (ROS). […] Therefore, the role of tigecycline on ROS generation in leukemia cells by analyzing hydrogen peroxide ions (H2O2) using a dichlorofluorescein dye (DCF-DA), and superoxide anions using dihydroethidium (DHE) was examined.

In experiment [1] the test system is acute myeloid leukemia (AML). Conditions: 13 patients treated; cited from earlier work.

Take `C=C(C)[C@H]1Cc2c(ccc3c2O[C@@H]2COc4cc(OC)c(OC)cc4[C@@H]2C3=O)O1` [rotenone]: in the experiment on TEX cells, the ROS generation result is listed as “rapid increases”.

Turning to antimycin, the ROS generation entry with TEX cells is recorded as “rapid increases”.

Regarding `NC(=O)c1ncn([C@@H]2O[C@H](CO)[C@@H](O)[C@H]2O)n1` [ribavirin], in experiment [1], the complete remission was 1 and the partial remissions was 2.

Consider `CC[C@H]1/C=C/C=C/C[C@@H](C)[C@H](O)[C@@](C)(O)C(=O)[C@@H](C)[C@H](O)[C@@H](C)C(=O)[C@@H](C)[C@H](O)[C@@H](C)/C=C/C(=O)O[C@@H]2[C@H](C)[C@H](CC1)O[C@]1(CC[C@H](C)[C@H](C[C@@H](C)O)O1)[C@H]2C` [oligomycin], for which the ROS generation result in the experiment with TEX cells is reported as “rapid increases”.
